Earlier results on one compound are cited in US20100104638A1 (priority 2008, published 2010).

As for `CC(=O)Nc1ccc(O)cc1` [Acetaminophen, N-(4-hydroxyphenyl) acetamide], the Aqueous solubility result was “about 14 mg/ml”.
